The nature of assay [1]: Retention time of the compound at 200 uM in presence of 50 mM GSH by HPLC analysis.
The test system of a further assay is MDA-MB-231. Put plainly: Growth inhibition of human MDA-MB-231 cells after 72 hrs by MTT assay. In kind it is cell-based. To be noted: MDA-MB-231, 72 h.
A further assay is filed under the species Homo sapiens. Put plainly: Inhibition of beta-tubulin polymerization in human MDA-MB-231 cells at 50 nM after 1 hr by NucBlue staining based immunofluorescence microscopic assay. Format: cell-based.

Retention time, GI50 and inhibition data for two molecules are collected here from ChEMBL document CHEMBL3997847, “Development of a novel near-infrared fluorescent theranostic combretastain A-4 analogue, YK-5-252, to target triple negative breast cancer” (Bioorg Med Chem, 2017).

Active and inactive are the calls of the source. The calls are words filed in the database; no cut-off is given here.

For orientation: GI50 means the concentration giving 50% growth inhibition. Low readings indicate more potent growth inhibition, high ones less potent growth inhibition.

With `N#CC(C#N)=C1C=C(/C=C/c2ccc(N)cc2)Oc2ccccc21`, the Retention time in assay [1] amounted to 8.6 min.

In the case of `COc1ccc(/C=C\c2cc(OC)c(OC)c(OC)c2)cc1O` [COMBRETASTATIN A4], the Retention time in assay [1] is 6.8 min. In the assay on MDA-MB-231, the GI50 was found to be 2.81 nM. The inhibition entry in the assay listed under Homo sapiens is “Active”.
